Laboratory results reported in patent US20120035206A1, “PREPARATION AND APPLICATION OF NOVEL ANTIBACTERIAL AND ANTICANCER COMPOUNDS AND THEIR DERIVATIVES” (priority 2009, published 2012).
Values after ≈ are worked out from the molar mass of the structure shown.

What was measured:
Format in all cases: cell-based
C. tropicalis = test: In vitro antibacterial (antifungal) test, two-fold dilution MIC; details: Candida tropicalis, RPMI 1640, culture 2-7 days
Procedure: (§1) In vitro antibacterial experiments of 25 compounds as anti-bacterial and anti-cancer compounds in the patent were tested using 14 kinds of bacteria. Tested bacteria: C. albicans, C. tropicalis, C. neoformans, E. floccosum, M. gypseum, A. niger, S. schenekn, C. parapsilosis, C. glabrata, C. Krusei, Trichoderma, Gibberella, Setrosphaeria turcica, Fusarium Oxysporum Vasinfectum. (Bacteria were from the Dermatology Hospital of Chinese Academy of Medical Sciences, Nanjing, China.)
(§2) The Preparation of tested Bacteria solution was following: incubated Bacteria were added to 5 ml physiological saline, and then they were mashed and placed with ultrasound. The solution was fully mixed, and insoluble substances were removed. The treated solution was called the original bacterium solution. In the test, the bacteria concentration in the original bacterium solution was adjusted to […].
(§3) Tested Methods: the tested compounds were dissolved in dimethyl sulfoxide. and the solution was diluted with sterile distilled water. And the distilled solution was added to sterilized RPMI 1640 medium. The concentration of the compounds were adjusted to 256, 128, 64, 32, 16, 8, 4, 2, 1, 0.5, 0.25, 0.125 ug*ml-1. Then the adjusted solutions were inoculated with tested bacteria, and the tested systems were placed in the constant temperature oven to culture for 2-7 days. The concentration at which there was no growing of fungi was taken as the minimum inhibitory concentration (MIC).

C. Krusei = test: as above; details: Pichia kudriavzevii, RPMI 1640, culture 2-7 days
Procedure: as §1, §2, §3

[1] = system: Fusarium oxysporum vasinfectum; test: as above; details: RPMI 1640, culture 2-7 days
Procedure: as §1, §2, §3

Setosphaeria turcica = test: as above; details: Exserohilum turcicum, RPMI 1640, culture 2-7 days
Procedure: as §1, §2, §3

C. neoformans = test: as above; details: Cryptococcus neoformans, RPMI 1640, culture 2-7 days
Procedure: as §1, §2, §3

C. glabrata = test: as above; details: Nakaseomyces glabratus, RPMI 1640, culture 2-7 days
Procedure: as §1, §2, §3

C. parapsilosis = test: as above; details: Lodderomyces parapsilosis, RPMI 1640, culture 2-7 days
Procedure: as §1, §2, §3

S. schenekn = test: as above; details: RPMI 1640, culture 2-7 days
Procedure: as §1, §2, §3

E. floccosum = test: as above; details: Epidermophyton floccosum, RPMI 1640, culture 2-7 days
Procedure: as §1, §2, §3

M. gypseum = test: as above; details: Nannizzia gypsea, RPMI 1640, culture 2-7 days
Procedure: as §1, §2, §3

Terchoderma = test: as above; details: Trichoderma, RPMI 1640, culture 2-7 days
Procedure: as §1, §2, §3

C. albicans = test: as above; details: Candida albicans, read-out: MIC C. albicas
Procedure: as §1, §2, §3

L428 = test: In vitro anticancer MTT experiment; details: Homo sapiens, L-428, concentration 5 ug/ml, 48 h or 72 h, read-out: inhibition ratio L428
Procedure: (§4) In vitro anticancer experiments of 25 compounds as anti-bacterial and anti-cancer compounds in the patent were tested. In the test, 14 kinds of cancer cells were used as tested cancer cells. And the results obtained by MTT method were shown in table 2 (the inhibition ratio was obtained when the concentration was 5 ug/ml). Tested Cancer Cells: SGC7901, HTB-38HT-29, CRL-2233NU-398, CRL-1469PANC-1, B0192, HTB-131MDA-453, CRL-1435PC-3, FTC133, AS24391, HTB-95637. (Cancer cells were from Chinese Military Academy of Medical Sciences). Cells Culture: Culture solution was composed of RPMI 1640 medium, 10% (VAT) Fetal calf serum and 0.01% L-glutamine. Cultured cells were maintained at 37° C. in an incubator with 5% CO2. The cells at logarithmic growth phase were used in the experiment. MTT Experiment: Single cell suspension was obtained by digesting cells with 0.25% trypsin. The cells at logarithmic growth phase were collected and seeded in a 96-well plate at a concentration of 6000-7000 cells per well. After culturing for 12 h at 37° C. in the incubator with 5% CO2, the cells were again incubated with the tested compounds of various concentrations for 48 h or 72 h. Pure cultures and cells without drug were taken as blank reference and negative reference, and 8 Wells of each group were taken. Twenty microliter of MTT (5 mg/mL) was added to each well, and the mixed solutions were incubation for 4 h. The formazan product was dissolved by dimethyl sulfoxide (DMSO, 150 μL), and the optical density (O.D.) was read at 570 nm. The Inhibition Ratio was calculated by the following formula: Inhibition Ratio=(Anegative control−Asample)/(Anegative control−Ablank control)

A375 = test: In vitro anticancer MTT experiment; details: Homo sapiens, A-375, concentration 5 ug/ml, 48 h or 72 h, read-out: inhibition ratio A375
Procedure: as §4

HTB-95637 = test: In vitro anticancer MTT experiment; details: concentration 5 ug/ml, 48 h or 72 h, read-out: inhibition ratio HTB-95637
Procedure: as §4

CRL-1435PC-3 = test: In vitro anticancer MTT experiment; details: concentration 5 ug/ml, 48 h or 72 h, read-out: inhibition ratio CRL-1435PC-3
Procedure: as §4

L1210 = test: In vitro anticancer MTT experiment; details: Mus musculus, concentration 5 ug/ml, 48 h or 72 h, read-out: inhibition ratio L1210
Procedure: as §4

FTC 133 = test: In vitro anticancer MTT experiment; details: Homo sapiens, concentration 5 ug/ml, 48 h or 72 h, read-out: inhibition ratio FTC 133
Procedure: as §4

CRL-1469PANC-1 = test: In vitro anticancer MTT experiment; details: concentration 5 ug/ml, 48 h or 72 h, read-out: inhibition ratio CRL-1469PANC-1
Procedure: as §4

AS24391 = test: In vitro anticancer MTT experiment; details: concentration 5 ug/ml, 48 h or 72 h, read-out: inhibition ratio AS24391
Procedure: as §4

SGC7901 = test: In vitro anticancer MTT experiment; details: Homo sapiens, SGC-7901, concentration 5 ug/ml, 48 h or 72 h, read-out: inhibition ratio SGC7901
Procedure: as §4

HTB-38HT-29 = test: In vitro anticancer MTT experiment; details: concentration 5 ug/ml, 48 h or 72 h, read-out: inhibition ratio HTB-38HT-29
Procedure: as §4

B01092 = test: In vitro anticancer MTT experiment; details: concentration 5 ug/ml, 48 h or 72 h, read-out: inhibition ratio B01092
Procedure: as §4

CRL-2233SNU-398 = test: In vitro anticancer MTT experiment; details: concentration 5 ug/ml, 48 h or 72 h, read-out: inhibition ratio CRL-2233SNU-398
Procedure: as §4

HTB-94 = test: In vitro anticancer MTT experiment; details: concentration 5 ug/ml, 48 h or 72 h, read-out: inhibition ratio HTB-94
Procedure: as §4

HTB-131MDA-MB-453 = test: In vitro anticancer MTT experiment; details: concentration 5 ug/ml, 48 h or 72 h, read-out: inhibition ratio HTB-131MDA-MB-453
Procedure: as §4

gibberella = test: In vitro antibacterial (antifungal) test, two-fold dilution MIC; details: RPMI 1640, culture 2-7 days
Procedure: as §1, §2, §3

SMILES	MIC (C. tropicalis) [µg/mL]	MIC [1] [µg/mL]	MIC (Setosphaeria turcica) [µg/mL]	MIC (C. neoformans) [µg/mL]	MIC (C. glabrata) [µg/mL]	MIC (C. parapsilosis) [µg/mL]	MIC (S. schenekn) [µg/mL]	MIC (E. floccosum) [µg/mL]	MIC (M. gypseum) [µg/mL]	MIC (Terchoderma) [µg/mL]	MIC (C. albicans) [µg/mL]	inhibition at 5 µg/mL (A375) [%]	inhibition at 5 µg/mL (CRL-1435PC-3) [%]	inhibition at 5 µg/mL (L1210) [%]	inhibition at 5 µg/mL (FTC 133) [%]	inhibition at 5 µg/mL (CRL-1469PANC-1) [%]	inhibition at 5 µg/mL (AS24391) [%]	inhibition at 5 µg/mL (SGC7901) [%]	inhibition at 5 µg/mL (B01092) [%]	inhibition at 5 µg/mL (HTB-94) [%]	further results
O=C1/C(=C/Cl)CSc2ccc(Cl)cc21 [Compound 4, (Z)-6-chloro-3-(chloromethylene)thiochroman-4-one]	8 (≈ 32.6 µM)	32 (≈ 131 µM)	8 (≈ 32.6 µM)	4 (≈ 16.3 µM)	16 (≈ 65.3 µM)	2 (≈ 8.16 µM)	4 (≈ 16.3 µM)	2 (≈ 8.16 µM)	16 (≈ 65.3 µM)	16 (≈ 65.3 µM)	4 (≈ 16.3 µM)	50.4	54.2	82.3	46.5	68	46.2	60.8	56.7	68	MIC (C. Krusei): 32 µg/mL (≈ 131 µM); inhibition at 5 µg/mL (L428): 66.6%; inhibition at 5 µg/mL (HTB-95637): 52.8%; inhibition at 5 µg/mL (HTB-38HT-29): 67.3%; inhibition at 5 µg/mL (CRL-2233SNU-398): 75.5%; inhibition at 5 µg/mL (HTB-131MDA-MB-453): 57.6%
Cc1ccc2c(c1)C(=O)/C(=C/Br)CS2 [Compound 8, (Z)-3-(bromomethylene)-6-methylthiochroman-4-one]	64 (≈ 238 µM)	64 (≈ 238 µM)	64 (≈ 238 µM)	8 (≈ 29.7 µM)	64 (≈ 238 µM)	32 (≈ 119 µM)	32 (≈ 119 µM)	64 (≈ 238 µM)	64 (≈ 238 µM)	32 (≈ 119 µM)	32 (≈ 119 µM)	37.9	50.6	84.6	75.6	47.9	40	60.6	39	56.7	MIC (C. Krusei): 64 µg/mL (≈ 238 µM); inhibition at 5 µg/mL (L428): 44.2%; inhibition at 5 µg/mL (HTB-95637): 56.4%; inhibition at 5 µg/mL (HTB-38HT-29): 54.9%; inhibition at 5 µg/mL (CRL-2233SNU-398): 46.4%; inhibition at 5 µg/mL (HTB-131MDA-MB-453): 47.3%
O=C1/C(=C/Cl)CSc2ncccc21 [Compound 18, (Z)-3-(chloromethylene)-2H-thiopyrano[2,3-b]pyridin-4(3H)-one]	16 (≈ 75.6 µM)	16 (≈ 75.6 µM)	8 (≈ 37.8 µM)	4 (≈ 18.9 µM)	16 (≈ 75.6 µM)	8 (≈ 37.8 µM)	4 (≈ 18.9 µM)	32 (≈ 151 µM)	32 (≈ 151 µM)	16 (≈ 75.6 µM)	8 (≈ 37.8 µM)	67.8	41	76.8	55	56.4	63.5	47.5	67.7	49	MIC (C. Krusei): 32 µg/mL (≈ 151 µM); inhibition at 5 µg/mL (HTB-95637): 56.4%; inhibition at 5 µg/mL (HTB-38HT-29): 63.5%; inhibition at 5 µg/mL (CRL-2233SNU-398): 46.6%; inhibition at 5 µg/mL (HTB-131MDA-MB-453): 77.1%
O=C1/C(=C/Cl)CSc2sccc21 [Compound 19, (Z)-5-(chloromethylene)-5,6-dihydro-4H-thieno[2,3-b]thiopyran-4-one]	16 (≈ 73.8 µM)	16 (≈ 73.8 µM)	32 (≈ 148 µM)	16 (≈ 73.8 µM)	32 (≈ 148 µM)	4 (≈ 18.5 µM)	32 (≈ 148 µM)	4 (≈ 18.5 µM)	16 (≈ 73.8 µM)	4 (≈ 18.5 µM)	8 (≈ 36.9 µM)	46.2	41.3	76.4	54.8	67.9	53	56.4	36.5	48.5	MIC (gibberella): 8 µg/mL (≈ 36.9 µM); inhibition at 5 µg/mL (L428): 47.5%; inhibition at 5 µg/mL (HTB-131MDA-MB-453): 47.9%
O=C1/C(=C\Cl)SCc2ccccc21 [Compound 26, (E)-3-(chloromethylene)isothiochroman-4-one]	8 (≈ 38 µM)	4 (≈ 19 µM)	2 (≈ 9.49 µM)	4 (≈ 19 µM)	16 (≈ 75.9 µM)	32 (≈ 152 µM)	8 (≈ 38 µM)	4 (≈ 19 µM)	16 (≈ 75.9 µM)	8 (≈ 38 µM)	2 (≈ 9.49 µM)										MIC (C. Krusei): 8 µg/mL (≈ 38 µM); MIC (gibberella): 16 µg/mL (≈ 75.9 µM)
Cc1ccc2c(c1)C(Cl)/C(=C/Cl)CS2 (centres unmarked) [Compound 28, (E)-4-chloro-3-(chloromethylene)-6-methylthiochroman]	16 (≈ 65.3 µM)	64 (≈ 261 µM)		8 (≈ 32.6 µM)	32 (≈ 131 µM)	32 (≈ 131 µM)	16 (≈ 65.3 µM)	4 (≈ 16.3 µM)	16 (≈ 65.3 µM)	16 (≈ 65.3 µM)	32 (≈ 131 µM)	52.7	65.2	79.4	72.5	75.3	72.3	63.3	46.2	62.2	inhibition at 5 µg/mL (L428): 66.7%; inhibition at 5 µg/mL (HTB-95637): 48.2%; inhibition at 5 µg/mL (HTB-38HT-29): 72.4%; inhibition at 5 µg/mL (CRL-2233SNU-398): 56.3%; inhibition at 5 µg/mL (HTB-131MDA-MB-453): 56.8%
